US10597388B2, “Pyridazinone herbicides” (FMC CORPORATION, priority 2014, dated 2020)

Experiments:
Format in all cases: in vivo
[1] = system: ragweed (common ragweed, Ambrosia elatior); assay: Test A greenhouse herbicide test, pre- and postemergence
Procedure, shortened: (§1)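 Seeds in loam–sand blend received a preemergence directed soil spray; plants at 2–10 cm, one- to two-leaf stage, received postemergence sprays. Compounds in a non-phytotoxic solvent with surfactant. After about 10 d in a greenhouse, injury rated visually versus untreated controls on a 0–100 scale (100 = complete control).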

kochia (Kochia scoparia) = assay: as above
Procedure, shortened: as §1

[2] = system: wheat (Triticum aestivum); assay: as above; settings: Postemergence
Procedure, shortened: as §1

[3] = system: pigweed (Amaranthus retroflexus); assay: as above
Procedure, shortened: as §1

corn (Zea mays) = assay: as above; settings: Postemergence
Procedure, shortened: as §1

[4] = system: barnyardgrass (Echinochloa crus-galli); assay: as above
Procedure, shortened: as §1

[5] = system: ryegrass, Italian (Italian ryegrass, Lolium multiflorum); assay: as above
Procedure, shortened: as §1

[6] = system: foxtail, giant (giant foxtail, Setaria faberii); assay: as above
Procedure, shortened: as §1

[7] = system: waterhemp (common waterhemp, Amaranthus rudis); assay: Test C greenhouse herbicide test, pre- and postemergence
Procedure, shortened: (§2)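 Pre- and postemergence greenhouse screen; values are visual control ratings, 0 meaning no effect and 100 complete kill, assigned relative to untreated plants after 13 to 15 d.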

[8] = system: johnsongrass (Sorghum halepense); assay: as above
Procedure, shortened: as §2

[9] = Postemergence, 125 g ai/ha, 0 to 100 scale where 0 is no effect and 100 is complete control
[10] = Postemergence, 500 g ai/ha, visual rating after approx. 10 d, 0 to 100 scale (0 no effect, 100 complete control)
[11] = Preemergence, 500 g ai/ha, 0 to 100 scale where 0 is no effect and 100 is complete control
[12] = Preemergence, 125 g ai/ha, 0 to 100 scale where 0 is no effect and 100 is complete control
[13] = 125 g ai/ha, 0 to 100 scale where 0 is no effect and 100 is complete control
[14] = 500 g ai/ha, visual rating after approx. 10 d, 0 to 100 scale (0 no effect, 100 complete control)
[15] = Postemergence, 31 g ai/ha, scale 0 to 100 (0 no effect, 100 complete control)
[16] = Postemergence, 62 g ai/ha, 0 to 100 scale (0 no effect, 100 complete control)
[17] = Postemergence, 250 g ai/ha, scale 0 to 100, 0 no effect, 100 complete control, 13 to 15 d
[18] = Preemergence, 31 g ai/ha, scale 0 to 100, 0 is no effect, 100 is complete control
[19] = Preemergence, 62 g ai/ha, scale 0 to 100, 0 is no effect, 100 is complete control
[20] = Preemergence, 125 g ai/ha, scale 0 to 100, 0 is no effect, 100 is complete control
[21] = Preemergence, 250 g ai/ha, scale 0 to 100, 0 no effect, 100 complete control
[22] = postemergence, 125 g ai/ha, scale 0 to 100, 0 no effect, 100 complete control
[23] = Postemergence, 125 g ai/ha, 0 to 100 scale, 0 no effect, 100 complete control
[24] = Preemergence, 125 g ai/ha, visual injury rating, 0 to 100 scale (0 no effect, 100 complete control), approx. 10 d
[25] = 125 g ai/ha, 0 to 100 scale, 0 no effect, 100 complete control
[26] = Postemergence, 250 g ai/ha, scale 0 to 100, 0 is no effect, 100 is complete control

For COC(=O)Oc1c(C)nn(C)c(=O)c1-c1ccc(Br)c2ccccc12 [Compound 145], the “Plant response rating, Ragweed” value [1, 9] was 100, the “Plant response rating, Ragweed” value [1, 10] was 100 and the “Plant response rating, Ragweed” value [1, 11] was 100. The “Plant response rating, Kochia” value (kochia (Kochia scoparia); [9]) was 100, the “Plant response rating, Kochia” value (kochia (Kochia scoparia); [10]) was 100 and the “Kochia plant response rating” value (kochia (Kochia scoparia); [12]) was 90. The “Plant response rating, Kochia” value (kochia (Kochia scoparia); [11]) was 100, the “Plant response rating, Wheat” value [2, 13] was 20 and the “Plant response rating, Wheat” value [2, 14] was 30. The “Plant response rating, Pigweed” value [3, 9] was 100, the “Plant response rating, Pigweed” value [3, 10] was 100 and the “Pigweed plant response rating” value [3, 12] was 90. For the same compound, the “Plant response rating, Pigweed” value [3, 11] was 100, the “Plant response rating, Corn” value (corn (Zea mays); [13]) was 20 and the “Plant response rating, Corn” value (corn (Zea mays); [14]) was 60. The “Plant response rating, Barnyardgrass” value [4, 9] was 20, the “Plant response rating, Barnyardgrass” value [4, 10] was 90 and the “Barnyardgrass plant response rating” value [4, 12] was 20. The “Plant response rating, Barnyardgrass” value [4, 11] was 90, the “Plant response rating, Ryegrass, Italian” value [5, 9] was 100 and the “Plant response rating, Ryegrass, Italian” value [5, 10] was 100. For the same compound, the “Plant response rating, Ryegrass, Italian” value [5, 11] was 100, the “Plant response rating, Foxtail, Giant” value [6, 9] was 20 and the “Plant response rating, Foxtail, Giant” value [6, 10] was 80. For the same compound, the “Foxtail, Giant plant response rating” value [6, 12] was 30, the “Plant response rating, Foxtail, Giant” value [6, 11] was 90 and the “Plant response rating, Waterhemp” value [7, 15] was 95. The “Waterhemp plant response rating” value [7, 16] was 100, the “Plant response rating, Waterhemp” value [7, 17] was 100 and the “Plant response rating, Waterhemp” value [7, 18] was 85. The “Plant response rating, Waterhemp” value [7, 19] was 98, the “Plant response rating, Waterhemp” value [7, 20] was 98 and the “Waterhemp plant response rating” value [7, 21] was 100. For the same compound, the “Waterhemp plant response rating” value [7, 22] was 100, the “Plant response rating, Johnsongrass” value [8, 15] was 10 and the “Johnsongrass plant response rating” value [8, 16] was 10. The “Plant response rating, Johnsongrass” value [8, 17] was 20, the “Plant response rating, Johnsongrass” value [8, 18] was 10 and the “Plant response rating, Johnsongrass” value [8, 19] was 5. For the same compound, the “Plant response rating, Johnsongrass” value [8, 20] was 5, the “Johnsongrass plant response rating” value [8, 21] was 5 and the “Johnsongrass plant response rating” value [8, 22] was 20.
CC(=O)Oc1c(Cl)nn(C)c(=O)c1-c1c(C)sc2ccc(C(F)(F)F)cc12 [Compound 152] was tested, and the “Plant response rating, Ragweed” value [1, 23] was 70, the “Plant response rating, Ragweed” value [1, 10] was 90 and the “Plant response rating, Ragweed” value [1, 24] was 80. For the same compound, the “Plant response rating, Ragweed” value [1, 11] was 100, the “Plant response rating, Kochia” value (kochia (Kochia scoparia); [23]) was 30 and the “Plant response rating, Kochia” value (kochia (Kochia scoparia); [10]) was 40. For the same compound, the “Plant response rating, Kochia” value (kochia (Kochia scoparia); [24]) was 30, the “Plant response rating, Kochia” value (kochia (Kochia scoparia); [11]) was 70 and the “Plant response rating, Wheat” value [2, 25] was 30. The “Plant response rating, Wheat” value [2, 14] was 50, the “Plant response rating, Pigweed” value [3, 23] was 50 and the “Plant response rating, Pigweed” value [3, 10] was 60. The “Plant response rating, Pigweed” value [3, 24] was 90, the “Plant response rating, Pigweed” value [3, 11] was 90 and the “Plant response rating, Corn” value (corn (Zea mays); [25]) was 0. The “Plant response rating, Corn” value (corn (Zea mays); [14]) was 0, the “Plant response rating, Barnyardgrass” value [4, 23] was 20 and the “Plant response rating, Barnyardgrass” value [4, 10] was 40. For the same compound, the “Plant response rating, Barnyardgrass” value [4, 24] was 40, the “Plant response rating, Barnyardgrass” value [4, 11] was 40 and the “Plant response rating, Ryegrass, Italian” value [5, 23] was 30. The “Plant response rating, Ryegrass, Italian” value [5, 10] was 90, the “Plant response rating, Ryegrass, Italian” value [5, 24] was 90 and the “Plant response rating, Ryegrass, Italian” value [5, 11] was 100. For the same compound, the “Plant response rating, Foxtail, Giant” value [6, 23] was 30, the “Plant response rating, Foxtail, Giant” value [6, 10] was 50 and the “Plant response rating, Foxtail, Giant” value [6, 24] was 40. For the same compound, the “Plant response rating, Foxtail, Giant” value [6, 11] was 90, the “Plant response rating, Waterhemp” value [7, 18] was 20 and the “Plant response rating, Waterhemp” value [7, 19] was 85. The “Plant response rating, Waterhemp” value [7, 20] was 85, the “Waterhemp plant response rating” value [7, 21] was 75 and the “Plant response rating, Johnsongrass” value [8, 18] was 0. The “Plant response rating, Johnsongrass” value [8, 19] was 0, the “Plant response rating, Johnsongrass” value [8, 20] was 0 and the “Johnsongrass plant response rating” value [8, 21] was 5.
With Cc1nn(C)c(=O)c(-c2c([N+](=O)[O-])ccc3ccccc23)c1O [Compound 165] the “Plant response rating, Ragweed” value [1, 23] was 90, the “Plant response rating, Ragweed” value [1, 10] was 90 and the “Plant response rating, Ragweed” value [1, 24] was 50. The “Plant response rating, Ragweed” value [1, 11] was 90, the “Plant response rating, Kochia” value (kochia (Kochia scoparia); [23]) was 60 and the “Plant response rating, Kochia” value (kochia (Kochia scoparia); [10]) was 90. The “Plant response rating, Kochia” value (kochia (Kochia scoparia); [24]) was 60, the “Plant response rating, Kochia” value (kochia (Kochia scoparia); [11]) was 100 and the “Plant response rating, Wheat” value [2, 25] was 0. The “Plant response rating, Wheat” value [2, 14] was 0, the “Plant response rating, Pigweed” value [3, 23] was 80 and the “Plant response rating, Pigweed” value [3, 10] was 80. For the same compound, the “Plant response rating, Pigweed” value [3, 24] was 100, the “Plant response rating, Pigweed” value [3, 11] was 90 and the “Plant response rating, Corn” value (corn (Zea mays); [25]) was 0. The “Plant response rating, Corn” value (corn (Zea mays); [14]) was 20, the “Plant response rating, Barnyardgrass” value [4, 23] was 20 and the “Plant response rating, Barnyardgrass” value [4, 10] was 30. For the same compound, the “Plant response rating, Barnyardgrass” value [4, 24] was 10, the “Plant response rating, Barnyardgrass” value [4, 11] was 30 and the “Plant response rating, Ryegrass, Italian” value [5, 23] was 80. The “Plant response rating, Ryegrass, Italian” value [5, 10] was 90, the “Plant response rating, Ryegrass, Italian” value [5, 24] was 40 and the “Plant response rating, Ryegrass, Italian” value [5, 11] was 100. For the same compound, the “Plant response rating, Foxtail, Giant” value [6, 23] was 20, the “Plant response rating, Foxtail, Giant” value [6, 10] was 50 and the “Plant response rating, Foxtail, Giant” value [6, 24] was 10. For the same compound, the “Plant response rating, Foxtail, Giant” value [6, 11] was 40, the “Plant response rating, Waterhemp” value [7, 15] was 65 and the “Waterhemp plant response rating” value [7, 16] was 70. For the same compound, the “Plant response rating, Waterhemp” value [7, 26] was 75, the “Waterhemp plant response rating” value [7, 22] was 75 and the “Plant response rating, Johnsongrass” value [8, 15] was 0. The “Johnsongrass plant response rating” value [8, 16] was 5, the “Plant response rating, Johnsongrass” value [8, 26] was 15 and the “Johnsongrass plant response rating” value [8, 22] was 10.
